SMILES strings stand for the structures. pKi: −log10 of the molar value.

This test deals with Trehalase (Sus scrofa). The experiment in a line: Evaluated for the inhibition of trehalase from porcine kidneys.

By pKi is commonly meant −log10 of the Ki, conventionally taken in molar units. Low values mean a high Ki, high ones a low Ki. `OCC1=CC(NC2COC(CO)C(O)C2O)C(O)C(O)C1O` (stereo unspecified) [6-(4,5-Dihydroxy-6-hydroxymethyl-tetrahydro-pyran-3-ylamino)-4-hydroxymethyl-cyclohex-4-ene-1,2,3-triol] had a pKi of 6.74.

The values are drawn from BindingDB's records for doi:10.1016/0960-894X(95)00055-X (1995).
